Where a name gives a salt, the structure may show the parent alone. Read-outs that look alike come from different tables or passages of the source.
How the values were obtained:
Format in all cases: cell-based
HTT mRNA = assay: Splicing RT-qPCR assay, HTT canonical (CJ) and alternative (AJ) junction mRNA; details: Homo sapiens; for EC50: AC50 = 50% response in AJ mRNA increase
Experimental: (§1) Compounds described herein were used to modulate RNA transcript abundance in cells. The expression of a target mRNA was measured by detecting the formation of an exon-exon junction in the canonical transcript (CJ). A compound mediated exon-inclusion event was detected by observing an increase in formation of a new junction with an alternative exon (AJ). Real-time qPCR assays were used to detect these splicing switches and interrogate the potency of various compounds towards different target genes. A high-throughput real time quantitative PCR (RT-qPCR) assay was developed to measure these two isoforms of the mRNA (CJ and AJ) for exemplary genes, such as HTT, SMN2, and MYB, together with a control housekeeping gene, GAPDH or GUSB or PPIA, used for normalization. Briefly, the A673 or K562 cell line was treated with various compounds described herein (e.g., compounds of Formula (I)). After treatment, the levels of the HTT, MYB, or SMN2 mRNA targets were determined from each sample of cell lysate by cDNA synthesis followed by qPCR.
(§2) The A673 cell line was cultured in DMEM with 10% FBS. Cells were diluted with full growth media and plated in a 96-well plate (15,000 cells in 100 ul media per well). The plate was incubated at 37° C. with 5% CO2 for 24 hours to allow cells to adhere. An 11-point 3-fold serial dilution of the compounds was made in DMSO then diluted in media in an intermediate plate. Compounds were transferred from the intermediate plate to the cell plate with the top dose at a final concentration of 10 uM in the well. Final DMSO concentration was kept at or below 0.25%. The cell plate was returned to the incubator at 37° C. with 5% CO2 for an additional 24 hours.
(§3) The K562 cell line was cultured in IMDM with 10% FBS. For K562, cells were diluted with full growth media and plated in either a 96-well plate (50,000 cells in 50 uL media per well) or a 384-well plate (8,000-40,000 cells in 45 uL media per well). An 11-point 3-fold serial dilution of the compounds were made in DMSO then diluted in media in an intermediate plate. Compound was transferred from the intermediate plate to the cell plate with the top dose at a final concentration of 10 uM in the well. Final DMSO concentration was kept at or below 0.25%. Final volume was 100 uL for 96-well plate and 50 uL for 384-well plate. The cell plate was then placed in an incubator at 37° C. with 5% CO2 for 24 hours.
(§4) The cells were then gently washed with 50 uL-100 uL cold PBS before proceeding to addition of lysis buffer. 30 uL-50 uL of room temperature lysis buffer with DNAse I (and optionally RNAsin) was added to each well. Cells were shaken/mixed thoroughly at room temperature for 5-10 minutes for lysis to take place and then 3 uL-5 uL of room temperature stop solution was added and wells were shaken/mixed again. After 2-5 minutes, the cell lysate plate was transferred to ice for RT-qPCR reaction setup. The lysates could also be frozen at-80° C. for later use.
(§5) In some cases, a direct lysis buffer was used. An appropriate volume of 3× lysis buffer (10 mM Tris, 150 mM NaCl, 1.5%-2.5% Igepal and 0.1-1 U/uL RNAsin, pH 7.4) was directly added to either K562 or A673 cells in media and mixed by pipetting 3 times. The plates were then incubated at room temperature with shaking/rocking for 20-50 minutes to allow for lysis to take place. After this time, the cell lysate plate was transferred to ice to set up for the RT-qPCR reactions. The lysates could also be frozen at −80° C. for later use.
(§6) To set up 10 uL RT-qPCR reactions, cell lysates were transferred to 384-well qPCR plates containing the master mix according to the table below. The plates were sealed, gently vortexed, and spun down before the run. The volumes were adjusted accordingly in some instances where the reaction was carried in 20 μL. The table below summarizes the components of the RT-qPCR reactions:
(§7) The RT-qPCR reaction was performed using a QuantStudio (ThermoFisher) under the following fast cycling conditions. […]

MYB mRNA = assay: Splicing RT-qPCR assay, MYB canonical (CJ) and alternative (AJ) junction mRNA; details: Homo sapiens; for EC50: AC50 = 50% response in AJ mRNA increase
Experimental: as §1, §2, §3, §4, §5, §6, §7

SMN2 mRNA = assay: Splicing RT-qPCR gene panel, SMN2 canonical junction (CJ) mRNA; details: Homo sapiens; Table 8; larger gene panel, decrease in CJ mRNA levels
Experimental: as §1, §2, §3, §4, §5, §6, §7

Target C mRNA = assay: Splicing RT-qPCR gene panel, Target C canonical junction (CJ) mRNA; details: Homo sapiens; Table 8; larger gene panel, decrease in CJ mRNA levels
Experimental: as §1, §2, §3, §4, §5, §6, §7

[1] = Table 7, RT-qPCR, A673 or K562 cells, 24 hours treatment
[2] = Table 7, IC50 = 50% response in CJ mRNA decrease, RT-qPCR, A673 or K562 cells, 24 hours treatment, read-out: HTT CJ
[3] = Table 8, larger gene panel, decrease in CJ mRNA levels, read-out: HTT CJ IC50
[4] = Table 7, IC50 = 50% response in CJ mRNA decrease, RT-qPCR, A673 or K562 cells, 24 hours treatment, read-out: MYB CJ
[5] = Table 8, larger gene panel, decrease in CJ mRNA levels, read-out: MYB CJ IC50

EC50 (HTT mRNA; [1]) [µM] | IC50 (HTT mRNA; [2]) [µM] | IC50 (HTT mRNA; [3]) [µM] | EC50 (MYB mRNA; [1]) [µM] | IC50 (MYB mRNA; [4]) [µM] | IC50 (MYB mRNA; [5]) [µM] | IC50 (SMN2 mRNA) [µM] | IC50 (Target C mRNA) [µM] | Structure (SMILES)
0.1 to 1 | 0.1 to 1 | 0.1 to 1 | 0.1 to 1 | 0.1 to 1 | 0.1 to 1 | < 0.1 | 0.1 to 1 | CC1CN(c2cc3sc(-c4cc(F)c5nn(C)cc5c4)nc3s2)CCN1 (centres unmarked) [Compound 135, 7-fluoro-2-methyl-5-[5-(3-methylpiperazin-1-yl)thieno[2,3-d][1,3]thiazol-2-yl]indazole]
0.1 to 1 | 0.1 to 1 | 0.1 to 1 | < 0.1 | 0.1 to 1 | < 0.1 | < 0.1 | 1 to 10 | Cn1cc2cc(-c3nc4sc(N5CCNCC5)c(Cl)c4s3)cc(F)c2n1 [Compound 147]
< 0.1 | < 0.1 | < 0.1 | < 0.1 | < 0.1 | < 0.1 | < 0.1 | < 0.1 | Cc1cn2cc(-c3nc4sc(C5CCNCC5)cc4s3)cc(F)c2n1 [Compound 130, 4-(2-[8-fluoro-2-methylimidazo[1,2-a]pyridin-6-yl]thieno[2,3-d][1,3]thiazol-5-yl)piperidine hydrochloride]
0.1 to 1 | < 0.1 | 0.1 to 1 | 0.1 to 1 | 0.1 to 1 | 0.1 to 1 | < 0.1 | 0.1 to 1 | Cc1cn2cc(-c3nc4sc(C5CCNCC5)cc4s3)ccc2n1 [Compound 271, 4-(2-{2-methylimidazo[1,2-a]pyridin-6-yl}thieno[2,3-d][1,3]thiazol-5-yl)piperidine]
1 to 10 | 1 to 10 | 1 to 10 | 1 to 10 | 1 to 10 | 1 to 10 | 1 to 10 | 1 to 10 | Cc1cn2nc(-c3nc4sc(C5CCOCC5)cc4s3)cc(C)c2n1 [Compound 196, 2,8-dimethyl-6-[5-(oxan-4-yl)thieno[2,3-d][1,3]thiazol-2-yl]imidazo[1,2-b]pyridazine]
1 to 10 | 1 to 10 | 1 to 10 | 1 to 10 | 1 to 10 | 1 to 10 | 1 to 10 | 1 to 10 | Cn1cc2c(F)cc(-c3nc4sc(C5CCNCC5)cc4s3)cc2n1 [Compound 131, 4-fluoro-2-methyl-6-[5-(piperidin-4-yl)thieno[2,3-d][1,3]thiazol-2-yl]indazole]
1 to 10 | 1 to 10 | 1 to 10 | 1 to 10 | 1 to 10 | 1 to 10 | 0.1 to 1 | 1 to 10 | Cn1cc2cc(N3Cc4sc(C5CCNCC5)cc4C3=O)ccc2n1 [Compound 1120]
0.1 to 1 | 0.1 to 1 | 0.1 to 1 | 0.1 to 1 | 0.1 to 1 | 0.1 to 1 | < 0.1 | 1 to 10 | Cn1cc2cc(-c3nc4sc(N5CCNC(C)(C)C5)cc4s3)cc(F)c2n1 [Compound 142, 5-[5-(3,3-dimethylpiperazin-1-yl)thieno[2,3-d][1,3]thiazol-2-yl]-7-fluoro-2-methylindazole]
1 to 10 | 1 to 10 | 1 to 10 | 1 to 10 | 1 to 10 | 1 to 10 | 1 to 10 | 1 to 10 | CN1CCC2(CC1)CCN2c1cc2sc(-c3cc(F)c4nn(C)cc4c3)nc2s1 [Compound 204, 1-[2-(7-fluoro-2-methylindazol-5-yl)thieno[2,3-d][1,3]thiazol-5-yl]-7-methyl-1,7-diazaspiro [3.5]nonane]
< 0.1 | < 0.1 | < 0.1 | < 0.1 | < 0.1 | < 0.1 | < 0.1 | < 0.1 | COc1c(-c2nc3sc(C4CCNCC4)cc3s2)cc2cn(C)nc2c1F [Compound 242, 7-fluoro-6-methoxy-2-methyl-5-[5-(piperidin-4-yl)thieno[2,3-d][1,3]thiazol-2-yl]indazole]
1 to 10 | 1 to 10 | 1 to 10 | 1 to 10 | > 10 | 1 to 10 | 0.1 to 1 | > 10 | Cn1cc2c(O)c(-c3nc4sc(C5CCNCC5)cc4s3)ccc2n1 [Compound 231, 2-methyl-5-[5-(piperidin-4-yl)thieno[2,3-d][1,3]thiazol-2-yl]indazol-4-ol]
< 0.1 | < 0.1 | < 0.1 | 0.1 to 1 | 0.1 to 1 | 0.1 to 1 | < 0.1 | 0.1 to 1 | C[C@@H]1C[C@@H](c2cc3sc(-c4cc(F)c5nn(C)cc5c4)nc3s2)CCN1 (stereo in doubt) [Compound 263, 7-fluoro-2-methyl-5-{5-[(2R,4S)-2-methylpiperidin-4-yl]thieno[2,3-d][1,3]thiazol-2-yl}indazole]
0.1 to 1 | 0.1 to 1 | 0.1 to 1 | 1 to 10 | 1 to 10 | 1 to 10 | < 0.1 | 1 to 10 | Cn1cc2cc(N3Cc4cc(C5CCNCC5)sc4C3=O)cc(F)c2n1 [Compound 1118, 5-(7-fluoro-2-methylindazol-5-yl)-2-(piperidin-4-yl)-4H-thieno[2,3-c]pyrrol-6-one]
< 0.1 | < 0.1 | < 0.1 | < 0.1 | < 0.1 | < 0.1 | < 0.1 | < 0.1 | C[C@@H]1C[C@@H](c2cc3sc(-c4cc(F)c5nn(C)cc5c4)nc3s2)CCN1 (single isomer, unassigned) [Compound 193, 7-fluoro-2-methyl-5-[5-(2-methylpiperidin-4-yl)thieno[2,3-d][1,3]thiazol-2-yl]indazole]

Structure (SMILES) | EC50 (HTT mRNA; [1]) [µM] | IC50 (HTT mRNA; [2]) [µM] | IC50 (HTT mRNA; [3]) [µM] | EC50 (MYB mRNA; [1]) [µM] | IC50 (MYB mRNA; [4]) [µM] | IC50 (MYB mRNA; [5]) [µM] | IC50 (SMN2 mRNA) [µM] | IC50 (Target C mRNA) [µM]
Cc1cn2nc(-c3nc4sc(C5=CCNCC5)cc4s3)cc(C)c2n1 [Compound 198, 4-(2-{2,8-dimethylimidazo[1,2-b]pyridazin-6-yl}thieno[2,3-d][1,3]thiazol-5-yl)-1,2,3,6-tetrahydropyridine] | 0.1 to 1 | < 0.1 | 0.1 to 1 | 0.1 to 1 | 0.1 to 1 | 0.1 to 1 | < 0.1 | 1 to 10
CN(c1cc2sc(-c3ccc(-c4cn[nH]c4)cc3O)nc2s1)[C@@H]1C[C@H]2CC[C@@H](C1)N2 [Compound 191, 2-{5-[(1R,3R,5S)-8-azabicyclo[3.2.1]octan-3-yl(methyl)amino]thieno[2,3-d][1,3]-thiazol-2-yl}-5-(1H-pyrazol-4-yl)phenol] | > 10 | > 10 | > 10 | > 10 | > 10 | > 10 | > 10 | > 10

— US20250109140A1, “5-[5-(PIPERIDIN-4-YL)THIENO[3,2-C]PYRAZOL-2-YL]INDAZOLE DERIVATIVES AND RELATED COMPOUNDS AS MODULATORS FOR SPLICING NUCLEIC ACIDS AND FOR THE TREATMENT OF PROLIFERATIVE DISEASES” (REMIX THERAPUTICS INC., priority 2022, published 2025)
